Measurements taken from ChEMBL document CHEMBL1149977, “Synthesis of 1-(2-aminopropyl)benzimidazoles, structurally related to the TIBO derivative R82150, with activity against human immunodeficiency virus” (Bioorg Med Chem Lett, 1993).

Legend:
CEM-SS [1] = experiment: Tested for the inhibition of HIV-1 in CEM-SS cells measured using Syncytial assay; format: functional, cell-based; conditions: Homo sapiens
CEM-SS [2] = experiment: Tested for the cytotoxicity against CEM-SS cells (determined by the inhibition of [3H]-thymidine uptake); format: functional; conditions: Homo sapiens
[3] = target: Human immunodeficiency virus type 1 reverse transcriptase (Human immunodeficiency virus 1) (UniProt Q72547); experiment: Tested for the inhibition of HIV-1 reverse transcriptase at a concentration of 10 ug/mL using a ribosomal RNA template
[4] = target: Human immunodeficiency virus type 1 reverse transcriptase (Human immunodeficiency virus 1) (UniProt Q72547); experiment: Tested for the inhibition of HIV-1 reverse transcriptase at a concentration of 100 ug/mL using a ribosomal RNA template
[5] = Selectivity index was determined by the ratio of CC50 to IC50; format: functional
[6] = target: Human immunodeficiency virus type 1 reverse transcriptase (Human immunodeficiency virus 1, UniProt Q72547); experiment: Tested for the inhibition of HIV-1 reverse transcriptase using a ribosomal RNA template

C=CCN(C)C(C)Cn1c(S)nc2ccccc21 (stereo not drawn)
IC50 (CEM-SS [1]): 23 µM
CC50 (CEM-SS [2]): > 100 µM

CC(C)=CCN(C)C(C)Cn1c(S)nc2ccccc21 (stereo not drawn)
inhibition [3]: 19%
inhibition [4]: 34%
IC50 (CEM-SS [1]): 14 µM
CC50 (CEM-SS [2]): > 100 µM

C=CCNC(C)Cn1c(S)nc2ccccc21 (stereo not drawn)
inhibition [3]: 4.5%
inhibition [4]: 29%
IC50 (CEM-SS [1]): 28 µM
CC50 (CEM-SS [2]): > 100 µM

CC(Cn1c(S)nc2ccccc21)NCc1ccccc1 (stereo not drawn)
Selectivity index [5]: 19
inhibition [3]: 17%
inhibition [4]: 36%
IC50 (CEM-SS [1]): 4.3 µM
CC50 (CEM-SS [2]): 82 µM

CC(C)=CCN1Cc2cccc3[nH]c(=S)n(c23)C[C@@H]1C
IC50 (CEM-SS [1]): 0.026 µM
CC50 (CEM-SS [2]): 79 µM

CC(C)=CCN1Cc2cc(Cl)cc3[nH]c(=S)n(c23)C[C@@H]1C
IC50 [6]: 0.0155 µM
IC50 (CEM-SS [1]): 0.055 µM
CC50 (CEM-SS [2]): 35 µM

CC(Cn1c(S)nc2ccccc21)N(C)Cc1ccccc1 (stereo not drawn)
inhibition [3]: 13%
inhibition [4]: 31%
IC50 (CEM-SS [1]): 20 µM
CC50 (CEM-SS [2]): 79 µM

CC(C)=CCNC(C)Cn1c(S)nc2ccccc21 (stereo not drawn)
inhibition [3]: 19%
inhibition [4]: 46%
IC50 (CEM-SS [1]): 23 µM
CC50 (CEM-SS [2]): 81 µM
